Entries after “also recorded” stand apart in the source; their conditions may differ.
Target: H275Y mutant A(H1N1)pdm09 virus, neuraminidase (NA) (Influenza A virus, UniProt A0A0X9QTS2, H275Y)

| Structure (SMILES) | susceptibility interpretation | IC50 [nM] |
| --- | --- | --- |
| CCOC(=O)C1=C[C@@H](OC(CC)CC)[C@H](NC(C)=O)[C@@H](N)C1 [Oseltamivir, oseltamivir] | highly reduced inhibition; also recorded: high reduced inhibition |  |
| CCC(CC)[C@H](NC(C)=O)[C@@H]1[C@H](O)[C@@H](C(=O)O)C[C@H]1N=C(N)N [Peramivir, peramivir] | highly reduced inhibition; also recorded: high reduced inhibition | 21.9 |
